From ChEMBL document CHEMBL5360614, “Quinoline Thiourea-Based Zinc Ionophores with Antibacterial Activity” (J Med Chem, 2023)
Activity calls are given as the source filed them. No cut-off for these calls is given here.

Tests used:
Staphylococcus aureus [1] = test: Bactericidal activity against Staphylococcus aureus MTCC-96 at 2 times MIC incubated for 1 hrs in presence of ZnCl2 by time kill assay; type: functional, organism-based
Lipid bilayer [2] = test: (§1) Induction of ionophore activity across EYPC:CHOL (8:2) large unilamellar vesicles assessed as transmembrane Zn2+ ion transport by measuring decrease in fluorescence intensity for HPTS dye preincubated for 3 mins followed by ZnCl2 addition and mesured after 7.5 mins by HPTS dye based fluorescence spectrophotometric analysis
Staphylococcus aureus [3] = test: Antibacterial activity against Staphylococcus aureus MTCC-96 assessed as reduction in bacterial growth incubated for 14 to 16 hrs in presence of 100 to 400 uM MnCl2 by microbroth dilution method; type: functional, organism-based; details: time 14-16 hrs
Staphylococcus aureus [4] = test: Induction of intracellular ROS generation in Staphylococcus aureus MTCC-96 at 1 uM incubated for 30 mins in presence of Zn2+ ions by DCF-DA staining based fluorescence microscopic analysis; type: functional, organism-based
Staphylococcus aureus [5] = test: In vivo antibacterial activity against Staphylococcus aureus MTCC-96 infected in Balb/c mouse assessed as normal architecture of portal vein in liver tissue at 31.6 microM/Kg, iv for 7 days in presence of ZnCl2 by hematoxylin and eosin staining based microscopic analysis; type: functional, organism-based; details: time 7.0 day
Lipid bilayer [6] = test: as §1, with “cation” for “Zn2+ ion”, “KCl” for “ZnCl2”; details: time 10.5 min
Staphylococcus aureus [7] = test: Antibacterial activity against Staphylococcus aureus MTCC-96 assessed as reduction in bacterial growth incubated for 14 to 16 hrs in presence of 100 to 400 uM ZnBr2 by microbroth dilution method; type: functional, organism-based; details: time 14-16 hrs
Staphylococcus aureus [8] = test: Bactericidal activity against Staphylococcus aureus MTCC-96 assessed as reduction in bacterial colony formation at 2 times MIC incubated upto 8 hrs in presence of ZnCl2 by agar-plate method; type: functional, organism-based
Staphylococcus aureus [9] = test: Antibacterial activity against gentamicin-and methicillin-resistant Staphylococcus aureus ATCC 33592 assessed as reduction in bacterial growth incubated for 14 to 16 hrs in presence of 400 uM ZnCl2 by microbroth dilution method; type: functional; details: time 14-16 hrs
Staphylococcus aureus [10] = test: In vivo antibacterial activity against Staphylococcus aureus MTCC-96 infected in Balb/c mouse assessed as uniform distribution of sinusoids in liver tissue at 31.6 microM/Kg, iv for 7 days in presence of ZnCl2 by hematoxylin and eosin staining based microscopic analysis; type: functional, organism-based; details: time 7.0 day
HCT-116 = test: Cytotoxicity against human HCT-116 cells assessed as reduction in cell viability at 1 to 100 uM incubated for 44 hrs by MTT assay; type: toxicity, cell-based; details: hct-116, 44 h, dose 1-100 µM
Staphylococcus aureus [11] = test: Antibacterial activity against Staphylococcus aureus MTCC-96 assessed as fold reduction in bacterial growth incubated for 14 to 16 hrs in presence of 400 uM ZnCl2 by microbroth dilution method; type: functional; details: time 14-16 hrs
Cell membrane = test: Induction of cell membrane depolarization in Staphylococcus aureus MTCC-96 assessed as change in fluorescence intensity at 3.13 uM by DiSC3-5 dye based fluorescence method; type: subcellular
Lipid bilayer [12] = test: as §1, with “anion” for “Zn2+ ion”, “ZnBr2” for “ZnCl2”; details: filed as opener; time 10.5 min

Q: With `FC(F)(F)c1cc(NC(=S)Nc2cccc3ccc(-n4cnc5ccccc54)nc23)cc(C(F)(F)F)c1` as the compound, how does the Activity (Staphylococcus aureus [1]) read?
A: The Activity was “Active”.

Q: What about the EC50 (Lipid bilayer [2]) of the same compound?
A: The EC50 was 5.49 µM.

Q: What about the Activity (Staphylococcus aureus [3]) of the same compound?
A: Its Activity is “inactive”.

Q: And the Activity (Staphylococcus aureus [4])?
A: Its Activity is “Active”.

Q: What about the Activity (Staphylococcus aureus [5]) of the same compound?
A: The Activity was “Active”.

Q: What about the Activity (Lipid bilayer [6]) of the same compound?
A: The Activity was “inactive”.

Q: And the Activity (Staphylococcus aureus [7])?
A: The Activity was “Active”.

Q: And the Activity (Staphylococcus aureus [8])?
A: The Activity was “Active”.

Q: What about the MIC (Staphylococcus aureus [9]) of the same compound?
A: The MIC was 2 µM.

Q: And the Activity (Staphylococcus aureus [10])?
A: The Activity was “Active”.

Q: What about the Activity (HCT-116) of the same compound?
A: Its Activity is “Non-Toxic”.

Q: And the “fold change (FC)” value (Staphylococcus aureus [11])?
A: The value was 6.65.

Q: What about the Activity (Cell membrane) of the same compound?
A: Its Activity is “inactive”.

Q: And the Activity (Lipid bilayer [12])?
A: The Activity was “Active”.
